Experimental data from the supplement of paper PMC11451515.

Tested on: NOMO1
Assay: cell viability relative to DMSO control; higher = less cytotoxic
Conditions: 48 h
How it was run: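 Three leukemia lines were tested: NOMO1 and SEM at 500 cells/well and P12-Ichikawa at 1000 cells/well. Each was adapted for at least four passages in each medium and seeded in 5 μl in 1536-well plates, and library compounds in DMSO were pin-dosed from 47 μM to 0.79 nM in 11 threefold steps. After 48 h at 37°C, CellTiter-Glo One luminescence was read. Viability is a percentage relative to DMSO wells on each plate, with cell-free wells as background.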

[1] = HPLM + 10% dialyzed FBS, 0.000781 µM
[2] = HPLM + 10% dialyzed FBS, 0.00234 µM
[3] = HPLM + 10% dialyzed FBS, 0.00702 µM
[4] = HPLM + 10% dialyzed FBS, 0.0211 µM
[5] = HPLM + 10% dialyzed FBS, 0.0632 µM
[6] = HPLM + 10% dialyzed FBS, 0.19 µM
[7] = HPLM + 10% dialyzed FBS, 0.569 µM
[8] = HPLM + 10% dialyzed FBS, 1.71 µM
[9] = HPLM + 10% dialyzed FBS, 5.12 µM
[10] = HPLM + 10% dialyzed FBS, 15.4 µM
[11] = HPLM + 10% dialyzed FBS, 46.1 µM
[12] = RPMI 5 mM glucose + 10% FBS, 0.000781 µM
[13] = RPMI 5 mM glucose + 10% FBS, 0.00234 µM
[14] = RPMI 5 mM glucose + 10% FBS, 0.00702 µM
[15] = RPMI 5 mM glucose + 10% FBS, 0.0211 µM
[16] = RPMI 5 mM glucose + 10% FBS, 0.0632 µM
[17] = RPMI 5 mM glucose + 10% FBS, 0.19 µM
[18] = RPMI 5 mM glucose + 10% FBS, 0.569 µM
[19] = RPMI 5 mM glucose + 10% FBS, 1.71 µM
[20] = RPMI 5 mM glucose + 10% FBS, 5.12 µM
[21] = RPMI 5 mM glucose + 10% FBS, 15.4 µM
[22] = RPMI 5 mM glucose + 10% FBS, 46.1 µM
[23] = RPMI 5 mM glucose + 10% dialyzed FBS, 0.000781 µM
[24] = RPMI 5 mM glucose + 10% dialyzed FBS, 0.00234 µM
[25] = RPMI 5 mM glucose + 10% dialyzed FBS, 0.00702 µM
[26] = RPMI 5 mM glucose + 10% dialyzed FBS, 0.0211 µM
[27] = RPMI 5 mM glucose + 10% dialyzed FBS, 0.0632 µM
[28] = RPMI 5 mM glucose + 10% dialyzed FBS, 0.19 µM
[29] = RPMI 5 mM glucose + 10% dialyzed FBS, 0.569 µM
[30] = RPMI 5 mM glucose + 10% dialyzed FBS, 1.71 µM
[31] = RPMI 5 mM glucose + 10% dialyzed FBS, 5.12 µM
[32] = RPMI 5 mM glucose + 10% dialyzed FBS, 15.4 µM
[33] = RPMI 5 mM glucose + 10% dialyzed FBS, 46.1 µM

Compound	cell viability [1]	cell viability [2]	cell viability [3]	cell viability [4]	cell viability [5]	cell viability [6]	cell viability [7]	cell viability [8]	cell viability [9]	cell viability [10]	cell viability [11]	cell viability [12]	cell viability [13]	cell viability [14]	cell viability [15]	cell viability [16]	cell viability [17]	cell viability [18]	cell viability [19]	cell viability [20]	cell viability [21]	cell viability [22]	cell viability [23]	cell viability [24]	cell viability [25]	cell viability [26]	cell viability [27]	cell viability [28]	cell viability [29]	cell viability [30]	cell viability [31]	cell viability [32]	cell viability [33]
Cc1cc(Cl)ccc1OCCCC(=O)NO	106%	117%	107%	94.8%	110%	122%	117%	112%	103%	67%	33.5%	93.5%	112%	93.2%	112%	113%	96.9%	106%	107%	94%	52.3%	15.9%	105%	121%	101%	114%	99.5%	104%	119%	114%	117%	73.4%	31%
Cc1ccc(C(=O)c2cc(O)c(O)c([N+](=O)[O-])c2)cc1	91.5%	104%	98.2%	100%	116%	101%	115%	89.5%	80.7%	83.2%	86.4%	90.3%	86.4%	83.6%	90.6%	96%	83.7%	90.9%	81.7%	94.6%	87.3%	92.2%	100%	98%	79.4%	92.1%	99.6%	105%	108%	94.3%	81.8%	88.4%	103%
CCCCCCCCc1ccc(CCC(N)(CO)CO)cc1	124%	124%	123%	122%	112%	102%	79.1%	91%	60.6%	48.9%	2.93%	99.2%	104%	102%	100%	105%	102%	104%	93.4%	90.3%	64.2%	2.61%	113%	105%	103%	113%	105%	95.6%	98.2%	81%	70.5%	65.2%	2.38%
Cc1[nH]c(/C=C2\C(=O)Nc3ccc([S+](=O)([O-])Cc4c(Cl)cccc4Cl)cc32)c(C)c1C(=O)N1CCC[C@@H]1CN1CCCC1	100%	112%	97.5%	83%	92.8%	96.4%	98.2%	84.3%	81.2%	87.7%	59.9%	108%	101%	89.1%	93.2%	88%	99.9%	99.3%	100%	90.5%	83.4%	79.6%	98.2%	89.8%	90.2%	94.4%	92.7%	102%	85.9%	91.2%	86.4%	84.8%	72.6%
NC\1=N\C(=O)N(\C=C1)[C@H]\2[C@H](O)[C@H](O)C(=C2F)\CO	78.5%	111%	105%	101%	110%	90.8%	94.7%	67.5%	32.1%	33.6%	11.3%	86.3%	112%	117%	106%	107%	88.2%	93%	83.5%	54.6%	12.6%	7.41%	89.1%	96.9%	104%	111%	109%	107%	111%	86.4%	27.7%	10.2%	7.62%
CN(C)c1ccc2cc(C(=O)N[C@@H](CCCNC(=N)CCl)C(=O)NCc3ccccc3)ccc2c1	108%	128%	108%	121%	125%	107%	112%	112%	106%	87.2%	14%	92%	119%	104%	96.3%	98.5%	102%	97%	98.6%	100%	85.4%	8.34%	114%	109%	103%	110%	111%	119%	115%	105%	105%	98.7%	12.5%
N[C@@H](CC(=O)N1CCn2c(nnc2C(F)(F)F)C1)Cc1cc(F)c(F)cc1F	119%	98.7%	111%	119%	100%	106%	103%	102%	109%	94.9%	83.5%	83.3%	97.4%	84.6%	86.4%	92.4%	84.8%	86%	83.4%	96.2%	85.1%	82.9%	103%	96.3%	99.5%	95.2%	106%	91.7%	93.4%	100%	96.2%	94.8%	79.5%
Nc1nc(OCc2ccccc2)c2nc[nH]c2n1	–	–	–	–	–	–	–	–	–	–	–	95.7%	117%	103%	109%	113%	101%	133%	107%	108%	108%	115%	110%	119%	123%	118%	128%	125%	122%	110%	116%	129%	123%
C[S+]([O-])c1ccc(-c2nc(-c3ccc(F)cc3)c(-c3ccncc3)[nH]2)cc1 (centres undefined)	78.8%	101%	108%	106%	106%	117%	106%	66.2%	35.1%	3.41%	2.33%	80%	90.4%	105%	95%	113%	96.3%	106%	75.9%	29.7%	4.04%	2.28%	83.5%	86.2%	87.3%	98.2%	99.1%	86.5%	99.1%	64.6%	34.6%	4.16%	2.47%
CN(C)CCN(Cc1ccc(Cl)cc1)c1ccccn1.Cl	84.4%	90.2%	89.4%	95.3%	91%	78.5%	98.2%	63.8%	93.9%	91.1%	90.3%	85.2%	90%	92.7%	92.6%	84.1%	96.8%	99.2%	85.9%	92%	80%	90.5%	83.5%	95.1%	91.7%	96.1%	94.1%	89.3%	103%	50.5%	87.3%	89.8%	79.6%
CC(=O)O[C@@]12CO[C@@H]1C[C@H](O)[C@]3(C)[C@@H]2[C@H](OC(=O)C4=CC=CC=C4)[C@]5(O)C[C@H](OC(=O)C(O)[C@@H](NC(=O)OC(C)(C)C)C6=CC=CC=C6)C(=C(/[C@@H](O)C3=O)C5(C)C)/C (some centres undefined)	32.4%	37.3%	34.7%	39.4%	42%	43%	31.7%	27.4%	27.7%	7.8%	5.55%	23.9%	27%	25.5%	28.9%	28.2%	27.1%	24.7%	24.8%	20%	12.6%	8.59%	25.2%	30.6%	27.8%	31.5%	28.9%	29.7%	27.3%	26.2%	18.8%	11%	9.95%
COC1=CC=C(C=C1)C2CC(=N/N2C3=CC=C(C=C3)[S+](N)([O-])=O)\C4=CC=CC=C4 (centres undefined)	82.7%	91.2%	98.8%	92.9%	97.4%	97.1%	94.9%	56.1%	24.4%	3.71%	1.86%	85.9%	85.1%	92.5%	102%	102%	98.3%	94.6%	89.5%	35.2%	4.7%	2.12%	82.7%	93.8%	85.6%	103%	98%	86.2%	93.3%	59%	43.3%	4.24%	1.96%
COC1(C[S+]([O-])c2ccccc2)CCN(CCc2c[nH]c3ccc(F)cc23)CC1 (centres undefined)	–	–	–	–	–	–	–	–	–	–	–	107%	113%	106%	106%	117%	117%	116%	112%	113%	103%	96.2%	111%	99.8%	115%	102%	112%	111%	110%	99.8%	98.3%	103%	90.3%
CC(C)NCC(O)c1ccc(NS(C)(=O)=O)cc1 (centres undefined)	110%	114%	110%	120%	126%	119%	101%	113%	109%	102%	111%	90.5%	91.9%	104%	86.2%	90.7%	98.6%	89.4%	89%	94.1%	104%	94.2%	87.9%	103%	110%	102%	105%	124%	102%	94.1%	102%	98.1%	117%
NCC(=O)Nc1ccc(-n2nc(C(F)(F)F)cc2-c2ccc3c(ccc4ccccc43)c2)cc1	129%	123%	123%	137%	134%	124%	138%	147%	131%	108%	78.1%	–	–	–	–	–	–	–	–	–	–	–	–	–	–	–	–	–	–	–	–	–	–
COc1cc([C@@H]2c3cc4c(cc3[C@@H](O[C@@H]3O[C@@H]5CO[C@@H](c6cccs6)O[C@H]5[C@H](O)[C@H]3O)[C@H]3COC(=O)[C@H]23)OCO4)cc(OC)c1O	92.7%	97.4%	115%	111%	103%	89.6%	97.7%	34.3%	116%	31.1%	13.8%	85.3%	85.6%	89.7%	97.2%	81.7%	99.3%	91.2%	22.9%	101%	22.4%	12.7%	89.5%	82.9%	91%	89.6%	93.2%	90.6%	101%	32.4%	99.3%	25.2%	16.7%
